The nature of series [1]: Chemical stability in water (10 mM) at 60 °C by HPLC. The class given is physicochemical. The conditions noted are these: for Chemical stability, Initial (%): HPLC AUC, 0 h set to 100%; for Chemical stability, 24 h / Chemical stability, 48 h / Chemical stability, 76 h / Chemical stability, 164 h / Chemical stability, 330 h: storage at 60 °C, HPLC.
Procedure: For this purpose, high-performance liquid chromatography (HPLC) was employed to measure any changes in these species upon storage at 60 °C (Table 1).
The target of series [2] is T1, BACE-1 (Homo sapiens, UniProt P56817).
T1 construct: purchased PanVera Corp. / Thermo Fisher Scientific P2985
The series can be described thus: BACE-1 FRET inhibition assay. The class given is biochemical.
Procedure: A BACE-1 inhibition assay was performed using a β-Secretase FRET kit (BACE-1, Thermo Fisher Scientific, San Diego, CA, USA) following the manufacturer’s instructions. […] In black 96-well microplates, 10 µL of the BACE-1 substrate was added to the diluted samples. The reaction was initiated by adding 10 µL of 3× BACE-1 enzyme to each well. The plates were incubated for 60 min at RT in the dark. After incubation, the reaction was stopped by adding 10 µL of 2.5 mM sodium acetate to each well. […] The IC50 value was determined by plotting the relative fluorescence units per hour (RFU/h) against the logarithmic inhibitor concentrations. All experiments were conducted in triplicate.

Series [3] relates to phosphorylated tau (P-tau). Nature of the series: P-tau level ELISA in SH-SY5Y cells. The conditions noted are these: Homo sapiens, 24 h, read-out: P-tau inhibition. For orientation: An ELISA detects its analyte on a solid surface through an enzyme-linked reagent.
Procedure: SH-SY5Y cells were grown in a complete growth medium comprising Dulbecco’s Modified Eagle Medium (DMEM) supplemented with 10% fetal bovine serum (FBS) and 1% penicillin/streptomycin. For treatment, adherent SH-SY5Y cells were plated in 96-well plates at a density of 2 × 10^6 cells per well. Levosimendan (Sigma, St. Louis, MO, USA) was used as an inhibitor to verify the effect on tau inhibition. Upon treatment with 20 μM of each substance, the cells were cultured for 24 h. The supernatant was then collected and used in subsequent ELISA assays.
The tau levels were assessed using a Human Tau ELISA kit (Abcam, Cambridge, UK). After treatment, the supernatant was diluted five times. The diluted supernatant, capture antibody, and detection antibody were mixed in a 2:1:1 ratio and incubated for 1 h. The wells were then washed three times with a wash buffer. After removing the buffer, 100 µL of 3,3′,5,5′-tetramethylbenzidine developer was added and incubated for 10 min, followed by the addition of 100 µL stop solution. The optical density was measured at 450 nm. Data analysis was performed by calculating the mean and standard deviation using GraphPad Prism 8 (GraphPad, San Diego, CA, USA).
Series [4] can be described thus: DPPH radical scavenging assay. The conditions noted are these: methanol, 30 min, RT, dark. In kind it is biochemical. (The DPPH test is a chemical assay of radical scavenging.)
Procedure: The mixture was then kept in the dark at RT for 30 min. Afterward, the absorbance was measured at 540 nm.
The subject of series [5] is NLRP3. Nature of the series: NLRP3 ELISA in LPS-induced RAW264.7 cells. In kind it is cell-based, murine. The conditions noted are these: 25 µM (method: 20 µM), LPS 0.5 µg/mL, 24 h. An excerpt: The induced cytokines further contribute to AD pathology by hyperphosphorylation of the tau protein [19]. Additionally, the activation of NLRP3 has been implicated in the pathogenesis of AD [20, 21], and this inflammatory response fosters the generation of Aβ and tau, ultimately contributing to disease progression. Thus, to determine the anti-inflammatory activities of the prepared derivatives, we measured the inhibition of nitrogen oxide (NO) and NLRP3 in LPS-induced RAW264.7 cells. The active concentration for activity assessment was established as 25 µM, at which cell viability had been previously confirmed.
RAW 264.7 macrophages were seeded at a density of 5 × 10^5 cells/well in 96-well plates and treated with 20 µM of RA-Hyd-Me, RA-Hyd-Me-tol, RA-Benzo, and RA-Sali for 1 h and then stimulated with 0.5 μg/mL LPS for 24 h. Culture supernatant levels of NOD-like receptor pyrine domain containing-3 (NLRP3) were determined using a commercially available ELISA kit (Lsbio, Seattle, WA, USA) and following the instructions of the manufacturer. The absorbance of the plate was read at a wavelength of 450 nm. NLRP3 was determined from a standard curve. The concentrations were expressed as ng/mL. To obtain statistical significance, all experiments were carried out in duplicate.

The target in series [6] is T2, acetylcholinesterase (AChE) (Electrophorus electricus, UniProt O42275).
T2 construct: purchased Sigma-Aldrich C3389
Nature of the series: biochemical.

Series [7] can be described thus: Stability of Ramalin in water vs deoxygenated water (10 mM, 48 h, 25 °C). The class given is physicochemical. An excerpt: This is evidenced by the increased stability when dissolved in deoxygenated water compared to water containing dissolved oxygen. […] We attempted modifications by introducing a methyl group into phenyl hydrazine to prevent conversion into the azo form or by linking the phenyl group to a benzophenone structure to block electron flow and mitigate oxidation, thereby enhancing stability.

[8] abbreviates: FRET kit, 60 min, RT, triplicate, read-out: BACE-1 IC50.

Like-named read-outs stand apart in the source and are kept apart here.

T1 sequence (P56817 46-501): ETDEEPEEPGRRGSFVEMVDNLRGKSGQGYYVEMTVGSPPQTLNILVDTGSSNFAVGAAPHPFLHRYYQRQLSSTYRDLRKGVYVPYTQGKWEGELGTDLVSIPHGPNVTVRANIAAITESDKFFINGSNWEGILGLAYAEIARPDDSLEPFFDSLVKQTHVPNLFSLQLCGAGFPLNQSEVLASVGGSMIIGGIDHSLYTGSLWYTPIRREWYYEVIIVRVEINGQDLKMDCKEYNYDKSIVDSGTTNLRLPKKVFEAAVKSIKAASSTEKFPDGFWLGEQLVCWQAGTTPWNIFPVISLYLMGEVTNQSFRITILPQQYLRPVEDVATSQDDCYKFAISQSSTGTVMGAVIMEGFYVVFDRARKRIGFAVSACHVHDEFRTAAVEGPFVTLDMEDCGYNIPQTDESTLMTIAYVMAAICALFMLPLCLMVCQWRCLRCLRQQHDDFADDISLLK
T2 sequence (O42275 24-633): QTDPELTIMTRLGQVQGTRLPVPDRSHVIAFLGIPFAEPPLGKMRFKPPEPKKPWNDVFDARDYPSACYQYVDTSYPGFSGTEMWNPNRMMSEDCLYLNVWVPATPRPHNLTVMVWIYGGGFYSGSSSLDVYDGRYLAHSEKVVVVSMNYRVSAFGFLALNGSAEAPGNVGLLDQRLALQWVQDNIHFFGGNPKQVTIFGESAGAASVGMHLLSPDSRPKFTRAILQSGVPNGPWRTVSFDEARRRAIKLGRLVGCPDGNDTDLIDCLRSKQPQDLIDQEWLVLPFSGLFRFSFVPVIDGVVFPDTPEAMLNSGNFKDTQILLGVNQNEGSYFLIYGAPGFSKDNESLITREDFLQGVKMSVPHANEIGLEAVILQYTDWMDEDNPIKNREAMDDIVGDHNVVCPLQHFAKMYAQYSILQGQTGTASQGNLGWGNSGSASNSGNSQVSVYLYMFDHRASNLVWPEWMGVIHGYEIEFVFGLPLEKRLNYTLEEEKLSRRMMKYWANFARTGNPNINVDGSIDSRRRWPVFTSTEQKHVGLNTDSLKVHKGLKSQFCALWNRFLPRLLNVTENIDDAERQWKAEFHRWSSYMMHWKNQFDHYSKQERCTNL

One may read the IC50 as the concentration that inhibits the measured activity by half. By inhibition is commonly meant the drop in the measured response relative to a control, in per cent. For the molecule `Cl.N[C@@H](CCC(=O)NNC(=O)c1ccccc1)C(=O)O` [RA-Benzo, N^5-benzamido-L-glutamine hydrochloride], in series [1], the “Chemical stability, Initial (%)” value was found to be 100%; the “Chemical stability, 24 h” value worked out at 97.2%; the “Chemical stability, 48 h” value came out at 94.4%; the “Chemical stability, 76 h” value turned out to be 91.5%. Moreover, in series [1], the “Chemical stability, 164 h” value is recorded as 82.5% and the “Chemical stability, 330 h” value came out at 68.0%. Moreover, the IC50 in series [2] (setting [8]) came to 144 ± 87.1 µM. Moreover, the inhibition at 20 µM in series [3] lay in the range of 10 to 15%.
With `CN(NC(=O)CC[C@H](N)C(=O)O)c1ccccc1` [RA-Hyd-Me, N^5-(methyl(phenyl)amino)-L-glutamine], in series [1], the “Chemical stability, Initial (%)” value is reported as 100%; the “Chemical stability, 24 h” value amounted to 97.5%; the “Chemical stability, 48 h” value was found to be 94.5%; the “Chemical stability, 76 h” value came to 91.1%. Besides, in series [1], the “Chemical stability, 164 h” value came to 80.3% and the “Chemical stability, 330 h” value came to 65.4%. The molecule also displayed an IC50 in series [4] of 14.4 µM. This molecule displayed an IC50 in series [2] of 15.5 ± 5.8 µM. Further, in series [3], the inhibition at 20 µM fell in the range of 10 to 15%.
Consider `Cc1cccc(N(C)NC(=O)CC[C@H](N)C(=O)O)c1` [RA-Hyd-Me-Tol, N^5-(methyl(m-tolyl)amino)-L-glutamine], for which, in series [1], the “Chemical stability, Initial (%)” value is recorded as 100%; the “Chemical stability, 24 h” value came out at 97.5%; the “Chemical stability, 48 h” value is 94.6%; the “Chemical stability, 76 h” value was determined as 91.0%. Also, in series [1], the “Chemical stability, 164 h” value is on record as 80.0% and the “Chemical stability, 330 h” value is given as 63.4%. Moreover, the IC50 in series [4] was found to be 12.4 µM. Also, in series [2] (setting [8]), the IC50 was 22.5 ± 1.76 µM. Further, in series [3], the inhibition at 20 µM lay in the range of 10 to 15%.
Turning to `Cl.N[C@@H](CCC(=O)NNC(=O)c1ccccc1O)C(=O)O` [RA-Sali, N^5-(2-hydroxybenzamido)-L-glutamine hydrochloride], in series [1], the “Chemical stability, Initial (%)” value worked out at 100%; the “Chemical stability, 24 h” value came out at 99.6%; the “Chemical stability, 48 h” value stood at 96.7%; the “Chemical stability, 76 h” value worked out at 93.3%. Further, in series [1], the “Chemical stability, 164 h” value worked out at 82.6% and the “Chemical stability, 330 h” value stood at 69.1%. The IC50 in series [2] (setting [8]) was determined as 8.44 ± 5.16 µM. The NLRP3 inhibitory activity in series [5] is listed as ~ 25%. Further, at 50 µM the inhibition in series [6] was 7.8%. Moreover, the inhibition at 20 µM in series [3] was ~40%.
For `N[C@@H](CCC(=O)NNc1ccccc1O)C(=O)O` [Ramalin, reference compound], in series [1], the “Chemical stability, Initial (%)” value was 100% ^1; the “Chemical stability, 24 h” value came out at 35.1% ^2; the “Chemical stability, 48 h” value came out at 17.1%; the “Chemical stability, 76 h” value is 7.6%. Further, in series [7] (deoxygenated water), the “Ramalin remained in deoxygenated water” value came to 92%. In addition, in series [7] (regular water), the “Ramalin remained in regular water” value is recorded as “about 53%”.

These data come from paper PMC11597085 (Molecules, 2024).
